Test results from article PMC5562305, “Impact of novel palmitoylated prolactin-releasing peptide analogs on metabolic changes in mice with diet-induced obesity” (PLoS ONE, 2017).
Values joined by “and” are separate entries in the source; they are usually repeats but may differ in a detail not shown here. Identical values can stand only once. Starred links: 1 amine or outer side, 2 acyl side, 3 side chain; linkers in the order of their positions; H or OH if unused. Residues, ends and D or L forms follow the SMILES beside them. Groups on a side chain read outwards from the residue. *: point of attachment. TTDA(Palmitoyl) = CCCCCCCCCCCCCCCC(=O)NCCCOCCOCCOCCCN*; γGlu = O=C(O)[C@H](CCC(=O)[*:2])N[*:1]; Palmitoyl = CCCCCCCCCCCCCCCC(=O)*; Suc = O=C(CCC(=O)[*:2])[*:1]

Assays:
[1] = Hormonal and biochemical (metabolic) parameters in blood of DIO mice; format: in vivo, C57BL/6 mice; settings: mean ± SEM; for Glucose: blood; for Glucose / FFA / Insulin / Leptin / T Chol (total cholesterol) / Triglycerides: 5 mg/kg SC twice a day, 2 weeks; for HOMA index: fasting glucose x fasting insulin / 22.5, 2 weeks; for FFA / Insulin / Leptin / T Chol (total cholesterol) / Triglycerides: plasma
Description: From 8 weeks of age, the mice were fed in house made high-fat (HF) diet to induce obesity. […] After twelve weeks of HF-diet feeding, two weeks of SC administration of lipidized PrRP analogs was initiated while the mice were kept on the HF diet. The following experimental groups were established: […] Food intake and BW were monitored daily during the dosing period. At the end of the experiment, the mice were sacrificed by decapitation. The trunk blood was collected, and the blood plasma was separated and stored at -20°C. The visceral adipose tissues (VAT) (from abdominal part), subcutaneous adipose tissues (SCAT) (all adipose tissue depots under the skin), perirenal adipose tissues, interscapular brown adipose tissues (BAT), and livers of all of the mice were dissected, weighed, flash-frozen in liquid nitrogen, and stored at -70°C for later extraction of RNA. The plasma insulin concentrations were measured using an RIA assay (Millipore, St. Charles, MI, USA), and the leptin concentrations were determined by ELISA (Millipore, St. Charles, MI, USA). The blood glucose levels were measured using a Glucocard glucometer (Arkray, Kyoto, Japan). The plasma triglyceride levels were measured using a quantitative enzymatic reaction (Sigma, St. Louis, MO, USA), and the free fatty acids (FFA) levels were determined using a colorimetric assay (Roche, Mannheim, Germany). Cholesterol was determined by colorimetric assay (Erba Lachema, Brno, Czech Republic). All measurements were performed according to the manufacturer's instructions.

GPR10 [2] = molecular target: T1, GPR10 (Homo sapiens, UniProt P49683); assay: Beta-lactamase-dependent FRET assay (bla reporter gene) in CHO-K1 cells overexpressing GPR10; format: cell-based; set-up: expressed in transfected cells; host or cells: CHO-K1; settings: average of the single experiments; read-out: Activation of bla reporter gene in GPR10 overexpressing cells, EC50, AVERAGE
T1 sequence (P49683 1-370): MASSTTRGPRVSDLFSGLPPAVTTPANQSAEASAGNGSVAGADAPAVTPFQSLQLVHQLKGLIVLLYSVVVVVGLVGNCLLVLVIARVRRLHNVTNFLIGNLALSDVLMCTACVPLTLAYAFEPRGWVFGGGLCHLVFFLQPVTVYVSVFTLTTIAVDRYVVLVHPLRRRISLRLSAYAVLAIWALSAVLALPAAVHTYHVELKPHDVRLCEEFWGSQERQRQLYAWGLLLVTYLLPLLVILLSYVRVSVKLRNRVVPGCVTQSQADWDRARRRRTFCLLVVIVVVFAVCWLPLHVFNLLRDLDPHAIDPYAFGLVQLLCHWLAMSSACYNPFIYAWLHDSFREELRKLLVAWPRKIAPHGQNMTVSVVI
Experimental: CHO-K1 cells overexpressing GPR10 were plated at 40,000 cells/well in 128 μl of assay medium (DMEM containing 10% dialyzed FBS, 0.1 mM NEAA, 25 mM HEPES, 1% penicillin/streptomycin, and 2 mM L-glutamine) in a 96-well plate and were incubated for 20 h at 37°C/5% CO2. The assay was performed according to the manufacturer's protocol.
The results from the lactamase assay were analyzed using nonlinear regression by log agonist vs. response using GraphPad software.

GPR10 [3] = molecular target: T1, GPR10; assay: Competitive binding of 125I-human PrRP31 to plated CHO-K1 cells expressing GPR10; set-up: host or cells: CHO-K1; settings: for Ki: CHO-K1 cells, 0.03 nM radioligand, 60 min 25°C, Cheng-Prusoff, mean ± SEM of at least three experiments, SEM; for % binding human PrRP31 (GPR10): Ki relative to human PrRP31 = 100; for 125I-human PrRP31 binding to human GPR10, Ki: single experiments (replicates listed below each other)
Experimental: (§1) CHO-K1 cells expressing the GPR10 receptor (Thermo Fisher Scientific Inc., Waltham, MA, USA) were grown according to the manufacturer's instructions. Saturation and competitive binding experiments were performed according to the methods of Motulsky and Neubig. […] The experiments were performed on plated cells that were incubated for 60 min at 25°C. Non-specific binding was determined using 10^−5 M PrRP31. The binding assays involving human NPFF2 receptor membranes obtained from Perkin Elmer were performed as described in [18].
(§2) Data are presented as the means ± SEM. The competitive binding curves were plotted using GraphPad software (San Diego, CA, USA), and the best fits were compared for single-binding-site models (IC50 values were obtained from nonlinear regression analysis). Inhibition constants (Ki) were calculated from the IC50 values using the Cheng-Prusoff equation [23]. The concentration of the radioligand was 0.1 nM for cell membranes of CHO-K1 cells overexpressing NPFF2 and 0.03 nM for CHO-K1 cells overexpressing GPR10.

[4] = Cumulative food intake of DIO mice during 2-week SC treatment; format: in vivo, C57BL/6 mice; settings: two weeks of SC treatment, 5 mg/kg twice a day, in words
Description: (§3) Inbred C57BL/6 male mice that were 3 weeks old were obtained from Charles River Laboratories (Sulzfeld, Germany). […] From 8 weeks of age, the mice were fed in house made high-fat (HF) diet to induce obesity. […] After twelve weeks of HF-diet feeding, two weeks of SC administration of lipidized PrRP analogs was initiated while the mice were kept on the HF diet. The following experimental groups were established: […] Food intake and BW were monitored daily during the dosing period.

[5] = Adipose tissue and liver weights in DIO mice at the end of the experiment; format: in vivo, C57BL/6 mice; settings: 5 mg/kg SC twice a day, 2 weeks, n = 10, mean ± SEM
Description: From 8 weeks of age, the mice were fed in house made high-fat (HF) diet to induce obesity. […] After twelve weeks of HF-diet feeding, two weeks of SC administration of lipidized PrRP analogs was initiated while the mice were kept on the HF diet. The following experimental groups were established: […] Food intake and BW were monitored daily during the dosing period. At the end of the experiment, the mice were sacrificed by decapitation. The trunk blood was collected, and the blood plasma was separated and stored at -20°C. The visceral adipose tissues (VAT) (from abdominal part), subcutaneous adipose tissues (SCAT) (all adipose tissue depots under the skin), perirenal adipose tissues, interscapular brown adipose tissues (BAT), and livers of all of the mice were dissected, weighed, flash-frozen in liquid nitrogen, and stored at -70°C for later extraction of RNA.

[6] = Body weight of DIO mice during 2-week SC treatment; format: in vivo, C57BL/6 mice; settings: 5 mg/kg SC twice a day, 2 weeks
Description: as §3

human NPFF2 = molecular target: T2, human NPFF2 (Homo sapiens, UniProt Q9Y5X5); assay: Competitive binding of 125I-1DMe to human NPFF2 receptor membranes; settings: for % binding human PrRP31 (NPFF2): Ki relative to human PrRP31 = 100
T2 construct: purchased Perkin Elmer; host or cells: CHO-K1 cell membranes
Experimental: as §1, §2

T2 sequence (Q9Y5X5 whole entry): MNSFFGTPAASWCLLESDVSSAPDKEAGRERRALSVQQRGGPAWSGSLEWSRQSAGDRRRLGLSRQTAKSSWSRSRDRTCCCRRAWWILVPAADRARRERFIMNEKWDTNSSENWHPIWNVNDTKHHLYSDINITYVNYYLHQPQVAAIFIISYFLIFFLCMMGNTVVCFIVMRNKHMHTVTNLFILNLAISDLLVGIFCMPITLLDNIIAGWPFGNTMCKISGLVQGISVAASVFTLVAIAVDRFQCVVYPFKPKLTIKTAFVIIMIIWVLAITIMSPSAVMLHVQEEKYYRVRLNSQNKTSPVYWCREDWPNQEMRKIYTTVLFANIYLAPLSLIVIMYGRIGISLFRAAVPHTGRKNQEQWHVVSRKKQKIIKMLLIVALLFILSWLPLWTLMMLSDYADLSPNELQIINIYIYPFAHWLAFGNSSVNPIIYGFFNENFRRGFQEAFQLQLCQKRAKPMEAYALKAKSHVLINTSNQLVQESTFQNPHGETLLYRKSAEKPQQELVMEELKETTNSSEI

Compound	Glucose [1]	HOMA index [1]	FFA [1]	Insulin [1]	Leptin [1]	T Chol (total cholesterol) [1]	Triglycerides [1]	EC50 (GPR10 [2])	Ki (GPR10 [3])	% binding human PrRP31 (GPR10) (GPR10 [3])	125I-human PrRP31 binding to human GPR10, Ki (GPR10 [3])	Food intake compared to the saline-treated control group [4]	Liver weight [5]	Perirenal AT [5]	Total AT [5]	Decrease of average BW at the end of the experiment [6]	% binding human PrRP31 (NPFF2) (human NPFF2)	Ki (human NPFF2; membranes of CHO-K1 cells overexpressing NPFF2, 0.1 nM radioligand, Cheng-Prusoff, mean ± SEM, SEM)	Ki (human NPFF2; average of the single experiments)
CCCCCCCCCCCCCCCC(=O)N[C@@H](CCC(=O)NCCCC[C@H](NC(=O)[C@@H](NC(=O)[C@H](CCC(=O)O)NC(=O)[C@H](CCSC)NC(=O)[C@H](CO)NC(=O)[C@H](Cc1c[nH]cn1)NC(=O)[C@H](CCCNC(=N)N)NC(=O)[C@H](Cc1c[nH]cn1)NC(=O)[C@@H](NC(=O)[C@H](CCCNC(=N)N)NC(=O)[C@@H](N)CO)[C@@H](C)O)[C@@H](C)CC)C(=O)N[C@H](C(=O)N1CCC[C@H]1C(=O)N[C@@H](CC(=O)O)C(=O)N[C@H](C(=O)N[C@@H](CC(N)=O)C(=O)N1CCC[C@H]1C(=O)N[C@@H](C)C(=O)N[C@@H](Cc1c[nH]c2ccccc12)C(=O)N[C@@H](Cc1ccc(O)cc1)C(=O)N[C@@H](C)C(=O)N[C@@H](CO)C(=O)N[C@@H](CCCNC(=N)N)C(=O)NCC(=O)N[C@H](C(=O)N[C@@H](CCCNC(=N)N)C(=O)N1CCC[C@H]1C(=O)N[C@H](C(=O)NCC(=O)N[C@@H](CCCNC(=N)N)C(=O)N[C@@H](Cc1ccccc1)C(N)=O)C(C)C)[C@@H](C)CC)[C@@H](C)CC)[C@@H](C)O)C(=O)O [analog 1] (H-SRTHRHSMEIK([γGlu-Palmitoyl])TPDINPAWYASRGIRPVGRF-NH2; N-terminus assumed)	7.12 ± 0.36 mmol/L	85.70 ± 0.39	0.54 ± 0.03 mmol/L	1.57 ± 0.14 ng/mL	22.67 ± 2.72 ng/mL	4.26 ± 0.22 mmol/L	0.44 ± 0.03 mg/mL	0.0463 nM	5.01 ± 1.03 nM	91%	9.92 nM and 5.47 nM and 4.23 nM and 3.01 nM and 1.75 nM and 3.77 nM and 6.96 nM	did not reach statistical significance	1.27 ± 0.05 g	2.72 ± 0.11 % of BW	14.59 ± 0.32 % of BW	12%	128%	39.1 ± 23.1 nM	–
CCCCCCCCCCCCCCCC(=O)NCCCOCCOCCOCCCNC(=O)CCC(=O)NCCCC[C@H](NC(=O)[C@@H](NC(=O)[C@H](CCC(=O)O)NC(=O)[C@H](CCSC)NC(=O)[C@H](CO)NC(=O)[C@H](Cc1c[nH]cn1)NC(=O)[C@H](CCCNC(=N)N)NC(=O)[C@H](Cc1c[nH]cn1)NC(=O)[C@@H](NC(=O)[C@H](CCCNC(=N)N)NC(=O)[C@@H](N)CO)[C@@H](C)O)[C@@H](C)CC)C(=O)N[C@H](C(=O)N1CCC[C@H]1C(=O)N[C@@H](CC(=O)O)C(=O)N[C@H](C(=O)N[C@@H](CC(N)=O)C(=O)N1CCC[C@H]1C(=O)N[C@@H](C)C(=O)N[C@@H](Cc1c[nH]c2ccccc12)C(=O)N[C@@H](Cc1ccc(O)cc1)C(=O)N[C@@H](C)C(=O)N[C@@H](CO)C(=O)N[C@@H](CCCNC(=N)N)C(=O)NCC(=O)N[C@H](C(=O)N[C@@H](CCCNC(=N)N)C(=O)N1CCC[C@H]1C(=O)N[C@H](C(=O)NCC(=O)N[C@@H](CCCNC(=N)N)C(=O)N[C@@H](Cc1ccccc1)C(N)=O)C(C)C)[C@@H](C)CC)[C@@H](C)CC)[C@@H](C)O [analog 2] (H-SRTHRHSMEIK([Suc-TTDA(Palmitoyl)])TPDINPAWYASRGIRPVGRF-NH2; N-terminus assumed)	7.26 ± 0.31 mmol/L	86.27 ± 0.64	0.52 ± 0.02 mmol/L	1.55 ± 0.27 ng/mL	23.64 ± 3.54 ng/mL	3.96 ± 0.26 mmol/L	0.44 ± 0.04 mg/mL	0.0835 nM	3.79 ± 0.47 nM	121%	4.698 nM and 3.31 nM and 3.352 nM	significantly reduced	1.31 ± 0.06 g	2.73 ± 0.17 % of BW	15.70 ± 0.53 % of BW	11.75%	761%	–	6.57 nM
